Laboratory results: PubChem BioAssay (NCI)
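Five compound concentrations were applied to cells in 96-well plates for 48 hours; endpoints were derived by simple linear interpolation of the resulting dose-response curve. Abbreviation: GI50, concentration required for 50% inhibition of growth. TGI: total growth inhibition.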

Legend:
Assay in all cases: inhibition of tumour cell growth, NCI panel, 48 h
NCI-H522 lung = test system: NCI-H522 lung
T-47D breast = test system: T-47D breast
SF-539 CNS = test system: SF-539 CNS
OVCAR-8 ovarian = test system: OVCAR-8 ovarian
KM12 colon = test system: KM12 colon
HT29 colon = test system: HT29 colon
MALME-3M melanoma = test system: MALME-3M melanoma
COLO 205 colon = test system: COLO 205 colon
UACC-62 melanoma = test system: UACC-62 melanoma
SK-OV-3 ovarian = test system: SK-OV-3 ovarian

SMILES: OCc1ccc(N2CCCC2c2ccccc2)cc1Cl (stereo not given)
- GI50 (NCI-H522 lung): 5.18 µM
- TGI (NCI-H522 lung): 18.6 µM
- GI50 (T-47D breast): 0.358 µM
- TGI (T-47D breast): 4.71 µM
- GI50 (SF-539 CNS): 8.77 µM
- TGI (SF-539 CNS): 21.8 µM
- GI50 (OVCAR-8 ovarian): 8.18 µM
- TGI (OVCAR-8 ovarian): 30.3 µM
- GI50 (KM12 colon): 4.17 µM
- TGI (KM12 colon): 19.4 µM
- GI50 (HT29 colon): 3.37 µM
- TGI (HT29 colon): 14.3 µM
- GI50 (MALME-3M melanoma): 9.73 µM
- TGI (MALME-3M melanoma): 28.2 µM
- GI50 (COLO 205 colon): 3.26 µM
- TGI (COLO 205 colon): 11.8 µM
- GI50 (UACC-62 melanoma): 0.665 µM
- TGI (UACC-62 melanoma): 4.01 µM
- GI50 (SK-OV-3 ovarian): 2.89 µM
- TGI (SK-OV-3 ovarian): 13 µM

SMILES: CC(=O)/C=C/c1cn(C(=O)OC(C)(C)C)c2ccc(Br)cc12
- GI50 (NCI-H522 lung): 17.7 µM
- TGI (NCI-H522 lung): 63.3 µM
- GI50 (T-47D breast): 17.4 µM
- TGI (T-47D breast): 54.4 µM
- GI50 (SF-539 CNS): 12.8 µM
- TGI (SF-539 CNS): 26 µM
- GI50 (OVCAR-8 ovarian): 16.2 µM
- TGI (OVCAR-8 ovarian): 39 µM
- GI50 (KM12 colon): 13.8 µM
- TGI (KM12 colon): 29.1 µM
- GI50 (HT29 colon): 10.6 µM
- TGI (HT29 colon): 24.8 µM
- GI50 (MALME-3M melanoma): 52.1 µM
- TGI (MALME-3M melanoma): > 89.2 µM
- GI50 (COLO 205 colon): 19.5 µM
- TGI (COLO 205 colon): 42.1 µM
- GI50 (UACC-62 melanoma): 20.6 µM
- TGI (UACC-62 melanoma): > 85.7 µM
- GI50 (SK-OV-3 ovarian): 20.6 µM
- TGI (SK-OV-3 ovarian): 46.7 µM

SMILES: O=S(=O)(Nc1cc(Sc2cccc3cccnc23)c(O)c2ccccc12)c1ccc(F)cc1
- GI50 (NCI-H522 lung): 1.4 µM
- TGI (NCI-H522 lung): 3.9 µM
- GI50 (T-47D breast): 1.75 µM
- TGI (T-47D breast): 4.67 µM
- GI50 (SF-539 CNS): 2.04 µM
- TGI (SF-539 CNS): 5.99 µM
- GI50 (OVCAR-8 ovarian): 0.645 µM
- TGI (OVCAR-8 ovarian): 10.3 µM
- GI50 (KM12 colon): 2.48 µM
- TGI (KM12 colon): 14.2 µM
- GI50 (HT29 colon): 1.84 µM
- TGI (HT29 colon): 6.59 µM
- GI50 (MALME-3M melanoma): 1.98 µM
- TGI (MALME-3M melanoma): 4.94 µM
- GI50 (COLO 205 colon): 1.69 µM
- TGI (COLO 205 colon): 3.51 µM
- GI50 (UACC-62 melanoma): 1.85 µM
- TGI (UACC-62 melanoma): 4.39 µM
- GI50 (SK-OV-3 ovarian): 3.23 µM
- TGI (SK-OV-3 ovarian): 13.4 µM

SMILES: c1cnn2ncc(-c3ccnc(NCCCN4CCOCC4)n3)c2c1
- GI50 (NCI-H522 lung): 10.6 µM
- TGI (NCI-H522 lung): > 25 µM
- GI50 (T-47D breast): 5.93 µM
- TGI (T-47D breast): > 21.3 µM
- GI50 (SF-539 CNS): 6.18 µM
- TGI (SF-539 CNS): 18.7 µM
- GI50 (OVCAR-8 ovarian): 7.03 µM
- TGI (OVCAR-8 ovarian): > 25 µM
- GI50 (KM12 colon): 6.85 µM
- TGI (KM12 colon): > 21.4 µM
- GI50 (HT29 colon): 7.43 µM
- TGI (HT29 colon): > 25 µM
- GI50 (MALME-3M melanoma): 7.63 µM
- TGI (MALME-3M melanoma): 24.5 µM
- GI50 (COLO 205 colon): 3.9 µM
- TGI (COLO 205 colon): 7.96 µM
- GI50 (UACC-62 melanoma): 5.86 µM
- TGI (UACC-62 melanoma): 18.4 µM
- GI50 (SK-OV-3 ovarian): 8.34 µM
- TGI (SK-OV-3 ovarian): > 25 µM

SMILES: O=[N+]([O-])c1ccc(C=Cc2ccccc2)cc1.[C-]#[O+].[C-]#[O+].[C-]#[O+].[Cr]
- GI50 (NCI-H522 lung): 3.85 µM
- TGI (NCI-H522 lung): > 100 µM
- GI50 (T-47D breast): 4.19 µM
- TGI (T-47D breast): > 100 µM
- GI50 (SF-539 CNS): > 100 µM
- TGI (SF-539 CNS): > 100 µM
- GI50 (OVCAR-8 ovarian): 9.77 µM
- TGI (OVCAR-8 ovarian): > 100 µM
- GI50 (KM12 colon): 13.7 µM
- TGI (KM12 colon): > 100 µM
- GI50 (HT29 colon): 29.5 µM
- TGI (HT29 colon): > 100 µM
- GI50 (MALME-3M melanoma): > 100 µM
- TGI (MALME-3M melanoma): > 100 µM
- GI50 (COLO 205 colon): 23.9 µM
- TGI (COLO 205 colon): > 100 µM
- GI50 (UACC-62 melanoma): 3.01 µM
- TGI (UACC-62 melanoma): 46.9 µM
- GI50 (SK-OV-3 ovarian): 22.9 µM
- TGI (SK-OV-3 ovarian): > 100 µM

SMILES: Fc1ccc(/C=N/n2c(-c3ccc(F)c(Cl)c3)nn(CNc3ccccc3C(F)(F)F)c2=S)cc1
- GI50 (NCI-H522 lung): 24.4 µM
- TGI (NCI-H522 lung): 76.3 µM
- GI50 (T-47D breast): 41.3 µM
- TGI (T-47D breast): > 100 µM
- GI50 (SF-539 CNS): 93.2 µM
- TGI (SF-539 CNS): > 100 µM
- GI50 (OVCAR-8 ovarian): 43.1 µM
- TGI (OVCAR-8 ovarian): > 100 µM
- GI50 (KM12 colon): 29.3 µM
- TGI (KM12 colon): > 100 µM
- GI50 (HT29 colon): 94.4 µM
- TGI (HT29 colon): > 100 µM
- GI50 (MALME-3M melanoma): 27.2 µM
- TGI (MALME-3M melanoma): 95.7 µM
- GI50 (COLO 205 colon): 47.7 µM
- TGI (COLO 205 colon): > 100 µM
- GI50 (UACC-62 melanoma): 39.2 µM
- TGI (UACC-62 melanoma): > 100 µM
- GI50 (SK-OV-3 ovarian): > 100 µM
- TGI (SK-OV-3 ovarian): > 100 µM

SMILES: O=C(O)CN1CCN(CC(=O)O)CC(=O)[O][Hg][O]C(=O)C1
- GI50 (NCI-H522 lung): 6.75 µM
- TGI (NCI-H522 lung): > 47.6 µM
- GI50 (T-47D breast): 17 µM
- TGI (T-47D breast): 43.2 µM
- GI50 (SF-539 CNS): 60.1 µM
- TGI (SF-539 CNS): > 100 µM
- GI50 (OVCAR-8 ovarian): 22.4 µM
- TGI (OVCAR-8 ovarian): 49.4 µM
- GI50 (KM12 colon): > 100 µM
- TGI (KM12 colon): > 100 µM
- GI50 (HT29 colon): 16 µM
- TGI (HT29 colon): 34.1 µM
- GI50 (MALME-3M melanoma): 16.6 µM
- TGI (MALME-3M melanoma): 33 µM
- GI50 (COLO 205 colon): 17.8 µM
- TGI (COLO 205 colon): 32.5 µM
- GI50 (UACC-62 melanoma): 18.3 µM
- TGI (UACC-62 melanoma): 32.4 µM
- GI50 (SK-OV-3 ovarian): > 92.2 µM
- TGI (SK-OV-3 ovarian): > 100 µM

SMILES: COc1ccccc1-c1cc(=O)c2cc(C)cnc2[nH]1
- TGI (NCI-H522 lung): > 100 µM
- TGI (T-47D breast): > 100 µM
- TGI (SF-539 CNS): > 100 µM
- TGI (OVCAR-8 ovarian): > 100 µM
- TGI (KM12 colon): > 100 µM
- TGI (HT29 colon): 84.5 µM
- TGI (MALME-3M melanoma): > 100 µM
- TGI (COLO 205 colon): 52.5 µM
- TGI (UACC-62 melanoma): > 100 µM
- TGI (SK-OV-3 ovarian): > 100 µM

SMILES: O=C1c2ccccc2-c2cc([N+](=O)[O-])c([N+](=O)[O-])cc21
- TGI (NCI-H522 lung): 2.99 µM
- TGI (T-47D breast): 2.69 µM
- TGI (SF-539 CNS): 1.03 µM
- TGI (OVCAR-8 ovarian): 3.57 µM
- TGI (KM12 colon): 3.51 µM
- TGI (HT29 colon): 3.87 µM
- TGI (MALME-3M melanoma): 4.95 µM
- TGI (COLO 205 colon): 4.71 µM
- TGI (UACC-62 melanoma): 3.13 µM
- TGI (SK-OV-3 ovarian): 6.51 µM

SMILES: NNC(=O)CS(=O)(=O)Nc1ncccn1
- TGI (NCI-H522 lung): > 100 µM
- TGI (T-47D breast): > 100 µM
- TGI (SF-539 CNS): > 100 µM
- TGI (OVCAR-8 ovarian): > 100 µM
- TGI (KM12 colon): > 100 µM
- TGI (HT29 colon): > 100 µM
- TGI (MALME-3M melanoma): > 100 µM
- TGI (COLO 205 colon): > 100 µM
- TGI (UACC-62 melanoma): > 100 µM
- TGI (SK-OV-3 ovarian): > 100 µM

SMILES: COc1ccc(-c2nc(Nc3cc(C)[nH]n3)c3ccccc3n2)cc1
- GI50 (NCI-H522 lung): 1.67 µM
- TGI (NCI-H522 lung): 19.8 µM
- GI50 (T-47D breast): 1.59 µM
- TGI (T-47D breast): > 25.6 µM
- GI50 (SF-539 CNS): 1.47 µM
- TGI (SF-539 CNS): 4.15 µM
- GI50 (OVCAR-8 ovarian): 6.16 µM
- TGI (OVCAR-8 ovarian): 99.8 µM
- GI50 (KM12 colon): 0.0994 µM
- TGI (KM12 colon): 29.1 µM
- GI50 (HT29 colon): 1.19 µM
- TGI (HT29 colon): 5.15 µM
- GI50 (MALME-3M melanoma): 28.5 µM
- TGI (MALME-3M melanoma): > 100 µM
- GI50 (COLO 205 colon): 1.5 µM
- TGI (COLO 205 colon): 3.61 µM
- GI50 (UACC-62 melanoma): 2.37 µM
- TGI (UACC-62 melanoma): > 100 µM
- GI50 (SK-OV-3 ovarian): 1.39 µM
- TGI (SK-OV-3 ovarian): > 100 µM
